Data published in patent EP1025114B1, “3'-N-MODIFIED 6-O-SUBSTITUTED ERYTHROMYCIN KETOLIDE DERIVATIVES HAVING ANTIBACTERIAL ACTIVITY” (priority 1997, dated 1999).
Converted amounts (≈) assume the structure as drawn.

Experiments:
Assay in all cases: In vitro antibacterial activity, agar dilution MIC
Type in all cases: cell-based
Candida albicans CCH 442 = Candida albicans CCH 442 (organism code TT); BHI agar, 35-37 °C, 20 to 24 hours; unit assumed
In short: (§1)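 Agar dilution on BHI agar: twelve successive compound dilutions, inoculated by Steers replicator with 1:100 dilutions (1:10 for slow growers such as Streptococcus). MIC is lowest concentration giving no growth, slight haze or sparse colonies versus drug-free control, judged visually; same-class reference antibiotic run alongside.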

[1] = system: Enterococcus faecium ATCC 8043; conditions: Enterococcus faecium ATCC 8043 (organism code II); BHI agar, 35-37 °C, 20 to 24 hours; unit assumed
In short: as §1

Escherichia coli DC-2 = Escherichia coli DC-2 (organism code SS); BHI agar, 35-37 °C, 20 to 24 hours; unit assumed
In short: as §1

Escherichia coli JUHL = Escherichia coli JUHL (organism code QQ); BHI agar, 35-37 °C, 20 to 24 hours; unit assumed
In short: as §1

Escherichia coli SS = Escherichia coli SS (organism code RR); BHI agar, 35-37 °C, 20 to 24 hours; unit assumed
In short: as §1

[2] = system: Haemophilis Influenzae DILL AMP R; conditions: Haemophilis Influenzae DILL AMP R (organism code WW); BHI agar, 35-37 °C, 20 to 24 hours; unit assumed
In short: as §1

[3] = system: Micrococcus luteus ATCC 4698; conditions: Micrococcus luteus ATCC 4698 (organism code PP); BHI agar, 35-37 °C, 20 to 24 hours; unit assumed
In short: as §1

[4] = system: Micrococcus luteus ATCC 9341; conditions: Micrococcus luteus ATCC 9341 (organism code OO); BHI agar, 35-37 °C, 20 to 24 hours; unit assumed
In short: as §1

[5] = system: Mycobacterium smegmatis ATCC 114; conditions: Mycobacterium smegmatis ATCC 114 (organism code UU); BHI agar, 35-37 °C, 20 to 24 hours; unit assumed
In short: as §1

[6] = system: Nocardia Asteroides ATCC9970; conditions: Nocardia Asteroides ATCC9970 (organism code VV); BHI agar, 35-37 °C, 20 to 24 hours; unit assumed
In short: as §1

[7] = system: Staphylococcus aureus 1775; conditions: Staphylococcus aureus 1775 (organism code GG); BHI agar, 35-37 °C, 20 to 24 hours; unit assumed
In short: as §1

[8] = system: Staphylococcus aureus A-5278; conditions: Staphylococcus aureus A-5278 (organism code CC); BHI agar, 35-37 °C, 20 to 24 hours; unit assumed
In short: as §1

[9] = system: Staphylococcus aureus A5177; conditions: Staphylococcus aureus A5177 (organism code BB); BHI agar, 35-37 °C, 20 to 24 hours; unit assumed
In short: as §1

[10] = system: Staphylococcus aureus ATCC 6538P; conditions: Staphylococcus aureus ATCC 6538P (organism code AA); BHI agar, 35-37 °C, 20 to 24 hours; unit assumed
In short: as §1

[11] = system: Staphylococcus aureus CMX 553; conditions: Staphylococcus aureus CMX 553 (organism code FF); BHI agar, 35-37 °C, 20 to 24 hours; unit assumed
In short: as §1

[12] = system: Staphylococcus aureus CMX 642A; conditions: Staphylococcus aureus CMX 642A (organism code DD); BHI agar, 35-37 °C, 20 to 24 hours; unit assumed
In short: as §1

[13] = system: Staphylococcus aureus NCTC10649M; conditions: Staphylococcus aureus NCTC10649M (organism code EE); BHI agar, 35-37 °C, 20 to 24 hours; unit assumed
In short: as §1

[14] = system: Staphylococcus epidermidis 3519; conditions: Staphylococcus epidermidis 3519 (organism code HH); BHI agar, 35-37 °C, 20 to 24 hours; unit assumed
In short: as §1

[15] = system: Streptococcus Pheumoniae 5649; conditions: Streptococcus Pheumoniae 5649 (organism code ZZA); BHI agar, 35-37 °C, 20 to 24 hours; unit assumed
In short: as §1

[16] = system: Streptococcus Pheumoniae 5979; conditions: Streptococcus Pheumoniae 5979 (organism code ZZ); BHI agar, 35-37 °C, 20 to 24 hours; unit assumed
In short: as §1

[17] = system: Streptococcus Pheumoniae ATCC6303; conditions: Streptococcus Pheumoniae ATCC6303 (organism code XX); BHI agar, 35-37 °C, 20 to 24 hours; unit assumed
In short: as §1

[18] = system: Streptococcus Pheumoniae GYR 1171; conditions: Streptococcus Pheumoniae GYR 1171 (organism code YY); BHI agar, 35-37 °C, 20 to 24 hours; unit assumed
In short: as §1

[19] = system: Streptococcus agalactiae CMX 508; conditions: Streptococcus agalactiae CMX 508 (organism code KK); BHI agar, 35-37 °C, 20 to 24 hours; unit assumed
In short: as §1

[20] = system: Streptococcus bovis A-5169; conditions: Streptococcus bovis A-5169 (organism code JJ); BHI agar, 35-37 °C, 20 to 24 hours; unit assumed
In short: as §1

[21] = system: Streptococcus pyogenes 930; conditions: Streptococcus pyogenes 930 (organism code MM); BHI agar, 35-37 °C, 20 to 24 hours; unit assumed
In short: as §1

[22] = system: Streptococcus pyogenes EES61; conditions: Streptococcus pyogenes EES61 (organism code LL); BHI agar, 35-37 °C, 20 to 24 hours; unit assumed
In short: as §1

[23] = system: Streptococcus pyogenes PIU 2548; conditions: Streptococcus pyogenes PIU 2548 (organism code NN); BHI agar, 35-37 °C, 20 to 24 hours; unit assumed
In short: as §1

CC[C@H]1OC(=O)[C@H](C)C(=O)[C@H](C)[C@@H](O[C@@H]2O[C@H](C)C[C@H](N(C)Cc3ccccc3)[C@H]2O)[C@](C)(OCC=Cc2cnc3ccccc3c2)C[C@@H](C)C(=O)[C@H](C)[C@H]2NC(=O)O[C@@]21C [Example 8]
MIC (Candida albicans CCH 442): > 100 µg/mL | MIC [1]: 0.1 µg/mL (≈ 0.119 µM) | MIC (Escherichia coli DC-2): > 100 µg/mL | MIC (Escherichia coli JUHL): > 100 µg/mL | MIC (Escherichia coli SS): 0.78 µg/mL (≈ 0.926 µM) | MIC [2]: 4 µg/mL (≈ 4.75 µM) | MIC [3]: 0.05 µg/mL (≈ 0.0594 µM) | MIC [4]: 0.05 µg/mL (≈ 0.0594 µM) | MIC [5]: 0.39 µg/mL (≈ 0.463 µM) | MIC [6]: 0.2 µg/mL (≈ 0.238 µM) | MIC [7]: > 100 µg/mL | MIC [8]: > 100 µg/mL | MIC [9]: 0.2 µg/mL (≈ 0.238 µM) | MIC [10]: 0.2 µg/mL (≈ 0.238 µM) | MIC [11]: 0.2 µg/mL (≈ 0.238 µM) | MIC [12]: 0.2 µg/mL (≈ 0.238 µM) | MIC [13]: 0.2 µg/mL (≈ 0.238 µM) | MIC [14]: 0.2 µg/mL (≈ 0.238 µM) | MIC [15]: 0.5 µg/mL (≈ 0.594 µM) | MIC [16]: > 128 µg/mL | MIC [17]: 0.03 µg/mL (≈ 0.0356 µM) | MIC [18]: 0.03 µg/mL (≈ 0.0356 µM) | MIC [19]: 0.02 µg/mL (≈ 0.0238 µM) | MIC [20]: 0.02 µg/mL (≈ 0.0238 µM) | MIC [21]: > 100 µg/mL | MIC [22]: 0.02 µg/mL (≈ 0.0238 µM) | MIC [23]: 0.2 µg/mL (≈ 0.238 µM)

CC[C@H]1OC(=O)[C@H](C)C(=O)[C@H](C)[C@@H](O[C@@H]2O[C@H](C)C[C@H](N(C)CC#N)[C@H]2O)[C@](C)(OCC=Cc2cnc3ccccc3c2)C[C@@H](C)C(=O)[C@H](C)[C@H]2NC(=O)O[C@@]21C [Example 9, Compound of Formula (II); R is -CH2CH=CH-(3-quinolyl), R^p is H, W is absent, R^w is H, R^1 is CH2-CN, R^2 is CH3-]
MIC (Candida albicans CCH 442): > 100 µg/mL | MIC [1]: 0.1 µg/mL | MIC (Escherichia coli DC-2): > 100 µg/mL | MIC (Escherichia coli JUHL): > 100 µg/mL | MIC (Escherichia coli SS): 0.2 µg/mL | MIC [2]: 8 µg/mL | MIC [3]: 0.2 µg/mL | MIC [4]: 0.02 µg/mL | MIC [5]: 12.5 µg/mL | MIC [6]: 0.78 µg/mL | MIC [7]: > 100 µg/mL | MIC [8]: > 100 µg/mL | MIC [9]: 0.1 µg/mL | MIC [10]: 0.1 µg/mL | MIC [11]: 0.05 µg/mL | MIC [12]: 0.1 µg/mL | MIC [13]: 0.1 µg/mL | MIC [14]: 0.2 µg/mL | MIC [15]: 0.5 µg/mL | MIC [16]: 128 µg/mL | MIC [17]: 0.03 µg/mL | MIC [18]: 0.03 µg/mL | MIC [19]: 0.01 µg/mL | MIC [20]: 0.01 µg/mL | MIC [21]: 12.5 µg/mL | MIC [22]: 0.01 µg/mL | MIC [23]: 0.39 µg/mL
